Assay results published in article PMC11857663, “Geliboluols A–D: Kaurane-Type Diterpenoids from the Marine-Derived Rare Actinomycete Actinomadura geliboluensis” (Marine Drugs, 2025).

Columns and labels:
Format in all cases: cell-based
[1] = tested on: HL-60 (acute myelogenous leukemia, AML); test: CellTiter-Glo (CTG) cytotoxicity assay, HL-60; details: Homo sapiens; HL-60, CTG assay, 48 h; read-out: Growth inhibition 50% (GI50) HL-60
Experimental: (§1) Compounds 1–5 were evaluated for their cytotoxicity against seven blood cancer cell lines, the most common cancer types in Korea, along with a normal cell line: HL-60 (acute myelogenous leukemia, AML), Raji (Burkitt’s lymphoma), WSU-DLCL2 (diffuse large B-cell lymphoma, DLBCL), NALM6 C. G5 (B-cell acute lymphocytic leukemia, B-ALL), K562 (chronic myelogenous leukemia, CML), RPMI-8402 (T-cell acute lymphocytic leukemia, T-ALL), U266 (multiple myeloma), and RPMI-1788 (B lymphocytes, normal cell line).
(§2) The cytotoxicity test was conducted with CTG luminescent cell viability and SRB assay according to the published procedures. Briefly, blood cancer cell lines and a normal cell line were obtained from the American Type Culture Collection (Manassas, VA, USA) (HL-60: acute myelogenous leukemia, Raji: Burkitt’s lymphoma, NALM6 C. G5: B-cell acute lymphocytic leukemia, K562: chronic myelogenous leukemia, U266: multiple myeloma, and RPMI-1788: B lymphocytes) and the DSMZ-German Collection of Microorganisms and Cell Cultures (WSU-DLCL2: diffuse large B-cell lymphoma and RPMI-8402: T-cell acute lymphocytic leukemia). The cell lines were incubated in RPMI 1640 supplemented with 10% fetal bovine serum, penicillin (100 IU/mL), and streptomycin (100 µg/mL) at 37 °C under a humidified atmosphere of 5% CO2. The cells with a passage number between 8 and 12 were used. The cell lines were prepared in an opaque-walled 96-well plate (8 × 10^3 cells/well), and the compounds (1–5 and doxorubicin as a positive control) with 0.1% DMSO were added to each well and incubated for 48 h. The cell cultures were then treated with 100 µL of CellTiter-Glo Reagent (Promega, Madison, WI, USA) and kept for 10 min to acquire a luminescence signal. Luminescence measurements were performed with the GloMax-Multi Detection System (Promega, Madison, WI, USA). The solid cancer cell lines and the normal cell line were obtained from the American Type Culture Collection (Manassas, VA, USA) (ACHN: renal, MDA-MB-231: breast, PC-3: prostate, NCI-H23: lung, HCT-15: colon, and MRC-9: lung fibroblast) and the Japanese Cancer Research Resources Bank (JCRB) (NUGC-3: stomach). The cell lines were incubated in RPMI 1640 supplemented with 10% fetal bovine serum, penicillin (100 IU/mL), and streptomycin (100 µg/mL) at 37 °C under a humidified atmosphere of 5% CO2. The cells with a passage number between 8 and 12 were used. The cells were then prepared in a 96-well plate (8 × 10^3 cells/well), and the compounds (1–5 and adriamycin as a positive control) with 0.1% DMSO were added to each well. After incubation for 48 h, the cell cultures were fixed using 50% trichloroacetic acid ([…]) and were dyed with 0.4% SRB in 1% acetic acid. Unbound dye was washed using 1% acetic acid and protein-bound dye was collected with 10 mM Tris base (pH 10.5) to measure optical density. Absorbance was measured at 540 nm with a VersaMax microplate reader (Molecular Devices, Sunnyvale, CA, USA) and GI50 values were calculated by GraphPad Prism 4.0 (GraphPad, San Diego, CA, USA).

[2] = tested on: Raji (Burkitt's lymphoma); test: CellTiter-Glo (CTG) cytotoxicity assay, Raji; details: Homo sapiens, 48 h, read-out: Growth inhibition 50% (GI50) Raji
Experimental: as §1, §2

[3] = tested on: WSU-DLCL2 (diffuse large B-cell lymphoma, DLBCL); test: CellTiter-Glo (CTG) cytotoxicity assay, WSU-DLCL2; details: Homo sapiens, WSUDLCL2, 48 h, read-out: Growth inhibition 50% (GI50) WSU-DLCL2
Experimental: as §1, §2

[4] = tested on: NALM6 C. G5 (B-cell acute lymphocytic leukemia, B-ALL); test: CellTiter-Glo (CTG) cytotoxicity assay, NALM6 C. G5; details: Homo sapiens, NALM-6, 48 h, read-out: Growth inhibition 50% (GI50) NALM6 C. G5
Experimental: as §1, §2

[5] = tested on: K562 (chronic myelogenous leukemia, CML); test: CellTiter-Glo (CTG) cytotoxicity assay, K562; details: Homo sapiens, 48 h, read-out: Growth inhibition 50% (GI50) K562
Experimental: as §1, §2

[6] = tested on: RPMI-8402 (T-cell acute lymphocytic leukemia, T-ALL); test: CellTiter-Glo (CTG) cytotoxicity assay, RPMI-8402; details: Homo sapiens; RPMI-8402, CTG assay, 48 h; read-out: Growth inhibition 50% (GI50) RPMI-8402
Experimental: as §1, §2

U266 (multiple myeloma) = test: CellTiter-Glo (CTG) cytotoxicity assay, U266; details: Homo sapiens, U-266, 48 h, read-out: Growth inhibition 50% (GI50) U266
Experimental: as §1, §2

[7] = tested on: RPMI-1788 (B lymphocytes, normal cell line); test: CellTiter-Glo (CTG) cytotoxicity assay, RPMI-1788 normal cell line; details: 48 h, read-out: Growth inhibition 50% (GI50) RPMI-1788
Experimental: as §1, §2

ACHN (renal) = test: Sulforhodamine B (SRB) cytotoxicity assay, ACHN; details: Homo sapiens, 48 h, read-out: Growth inhibition 50% (GI50) ACHN
Experimental: (§3) Compounds 1–5 were further evaluated for their cytotoxicity against six solid cancer cell lines and a normal cell line: ACHN (renal), MDA-MB-231 (breast), PC-3 (prostate), NUGC-3 (stomach), NCI-H23 (lung), HCT-15 (colon), and MRC-9 (lung fibroblast, normal cell line). […] Additionally, compounds 1–5 were evaluated for their antimicrobial properties by applying the broth microdilution method, described by the Clinical and Laboratory Standards Institute, against three Gram-positive bacteria, Bacillus subtilis (KCTC 1021), Micrococcus luteus (KCTC 1915), and Staphylococcus aureus (KCTC 1927), and three Gram-negative bacteria, Escherichia coli (KCTC 2441), Salmonella enterica serovar Typhimurium (KCTC 2515), and Klebsiella pneumoniae (KCTC 2690).
as §2

MDA-MB-231 (breast) = test: Sulforhodamine B (SRB) cytotoxicity assay, MDA-MB-231; details: Homo sapiens; MDA-MB-231, SRB assay, 48 h; read-out: Growth inhibition 50% (GI50) MDA-MB-231
Experimental: as §3, §2

PC-3 (prostate) = test: Sulforhodamine B (SRB) cytotoxicity assay, PC-3; details: PC-3, SRB assay, 48 h; read-out: Growth inhibition 50% (GI50) PC-3
Experimental: as §3, §2

NUGC-3 (stomach) = test: Sulforhodamine B (SRB) cytotoxicity assay, NUGC-3; details: Homo sapiens; NUGC-3, SRB assay, 48 h; read-out: Growth inhibition 50% (GI50) NUGC-3
Experimental: as §3, §2

NCI-H23 (lung) = test: Sulforhodamine B (SRB) cytotoxicity assay, NCI-H23; details: Homo sapiens, 48 h, read-out: Growth inhibition 50% (GI50) NCI-H23
Experimental: as §3, §2

HCT-15 (colon) = test: Sulforhodamine B (SRB) cytotoxicity assay, HCT-15; details: Homo sapiens; HCT-15, SRB assay, 48 h; read-out: Growth inhibition 50% (GI50) HCT-15
Experimental: as §3, §2

[8] = tested on: MRC-9 (lung fibroblast, normal cell line); test: Sulforhodamine B (SRB) cytotoxicity assay, MRC-9 normal cell line; details: MRC9, 48 h, read-out: Growth inhibition 50% (GI50) MRC-9
Experimental: as §3, §2

blood cancer cell lines = test: CTG cytotoxicity assay, panel of blood cancer cell lines; details: 48 h, read-out: GI50 values against blood cancer cell lines (range over the panel)
Experimental: as §1
(§4) The cytotoxicity test was conducted with CTG luminescent cell viability and SRB assay according to the published procedures. […] The cell cultures were then treated with 100 µL of CellTiter-Glo Reagent (Promega, Madison, WI, USA) and kept for 10 min to acquire a luminescence signal. Luminescence measurements were performed with the GloMax-Multi Detection System (Promega, Madison, WI, USA). […] Absorbance was measured at 540 nm with a VersaMax microplate reader (Molecular Devices, Sunnyvale, CA, USA) and GI50 values were calculated by GraphPad Prism 4.0 (GraphPad, San Diego, CA, USA).

solid cancer cell lines = test: SRB cytotoxicity assay, panel of solid cancer cell lines; details: six solid cancer cell lines or the normal cell line, 48 h, read-out: GI50 values against solid cancer cell lines (range over the panel)
Experimental: as §3, §4

SMILES	GI50 [1] [µM]	GI50 [2] [µM]	GI50 [3] [µM]	GI50 [4] [µM]	GI50 [5] [µM]	GI50 [6] [µM]	GI50 (U266 (multiple myeloma)) [µM]	GI50 [7] [µM]	GI50 (ACHN (renal)) [µM]	GI50 (MDA-MB-231 (breast)) [µM]	GI50 (PC-3 (prostate)) [µM]	GI50 (NUGC-3 (stomach)) [µM]	GI50 (NCI-H23 (lung)) [µM]	GI50 (HCT-15 (colon)) [µM]	GI50 [8] [µM]	GI50 (blood cancer cell lines) [µM]	GI50 (solid cancer cell lines) [µM]
COc1cccc2c1C(=O)c1c(O)c3c(c(O)c1C2=O)C[C@@](O)(C(=O)CO)C[C@@H]3O[C@H]1C[C@H](N)[C@H](O)[C@H](C)O1 [Doxorubicin, reference compound]	0.029	0.014	0.008	0.007	0.094	0.035	0.112	0.012	0.222	0.21	0.106	0.245	0.221	0.305	0.314		
C=C1C[C@@]23C[C@@H]1CC[C@]2(O)[C@@]1(C)CC[C@H](O)C(C)(C)[C@@H]1[C@H](O)C3 [compound 1, geliboluol A]	> 30	> 30	> 30	> 30	> 30	> 30	> 30	> 30	> 30	> 30	> 30	> 30	> 30	> 30	> 30		
C=C1C[C@@]23C[C@@H]1CC[C@]2(O)[C@@]1(C)[C@@H](O)CCC(C)(C)[C@@H]1[C@H](O)C3 [compound 2, geliboluol B]	> 30	> 30	> 30	> 30	> 30	> 30	> 30	> 30	> 30	> 30	> 30	> 30	> 30	> 30	> 30		
C=C1C[C@@]23C[C@@H]1CC[C@]2(O)[C@@]1(C)CCC[C@@](C)(CO)[C@@H]1[C@H](O)C3 [compound 3, geliboluol C]	> 30	> 30	> 30	> 30	> 30	> 30	> 30	> 30	> 30	> 30	> 30	> 30	> 30	> 30	> 30		
C=C1C2CCC3(O)C4(C)CCCC(C)(CO)C4C(O)CC3(C2)C1O (centres unmarked) [compound 4, geliboluol D]	11.2	2.73	3.48	2.59	19.6	8.51	> 30	4.52	4.58	5.73	6.5	4.34	5.13	5.73	7.23	2.59 to 19.6	4.34 to 7.23
C=C1C[C@@]23C[C@@H]1CC[C@]2(O)[C@@]1(C)CCCC(C)(C)[C@@H]1[C@H](O)C3 [compound 5]	16.4	4.58	5.93	7.34	11.9	11.1	22.5	9.56	> 30	> 30	> 30	> 30	> 30	> 30	> 30		
